Data published in patent US11497713B2, “Combination taxoid nanoemulsion with immunotherapy in cancer” (TargaGenix, Inc., priority 2017, dated 2022).

How the values were obtained:
Panc02 induced tumor = experiment: Subcutaneous Panc02 syngeneic pancreatic cancer model, single and combination therapy; type: in vivo, C57Bl/6 mice
Method: In addition to evaluation of efficacy in CSC-rich PDAC models, the efficacy of NE-DHA-SBT-1214 in combination with antibody targeted to PD-L1 immune checkpoint inhibitor was examined in subcutaneous (subQ) Panc-2 syngeneic pancreatic cancer model developed in […] mice. After transplantation of the Panc-2 cells, the mice were divided into groups for weekly treatment by intravenous administration of vehicle (as control), gemcitabine (at 120 mg/kg), ABRAXANE® (at 120 mg/kg) and NE-DHA-SBT-1214 (at 10 and 25 mg/kg) as either single in combination with either IgG control or anti-PD-L1 antibody (200 μg/dose). The antibodies were administered intraperitoneally. The treatment started two weeks after tumor transplantation when tumor mass became palpable at 50 to 150 mm^3 in volume.
All experiments involving the use of animals were carried out in strict accordance with the recommendations in the guide for the care and use of laboratory animals of the National Institutes of Health, via a research protocol that was approved by Northeastern University Institutional Animal Care and Use Committee (IACUC). […] Tumor development was monitored twice weekly. The tumor size was measured with a caliper on a weekly basis and approximate tumor volumes determined using the formula 0.5ab^2, where b is the smaller of the two perpendicular diameters. […]

Panc02 cells = experiment: Cell viability (MTT assay) in Panc02 cells; type: cell-based, murine; details: 96 hours of drug exposure
Method: The murine pancreatic cancer cell line Panc02, which is syngeneic to C57Bl/6 mice was a kind gift from Professor Michael A. Hollingsworth, UNMC, Omaha, Nebr. Panc02 cells were grown in 75 cm^2 cell culture flasks and maintained in DMEM medium supplemented with 10% fetal bovine serum (FBS), L-glutamine and penicillin (100 U/ml)/streptomycin (100 μg/ml) (both from Gibco Life Technologies, Carlsbad, Calif., USA). Cells were incubated at 37° C. in a humidified atmosphere containing 5% CO2.
To see cytotoxic effect of different drugs and nanoemulsion formulation, 5000 cells were seeded in each well of the 96-well plate for overnight at 37° C. in a humidified atmosphere containing 5% CO2. Various drugs (Paclitaxel, Abraxane, Gemcitabine and solution and nanoemulsion of DHA-SBT-1214) were diluted at concentrations ranging from 0 nM, 0.01 nM, 0.1 nM, 1 nM, 10 nM, 100 nM, 1000 nM to 10000 nM and Panc02 cells treated with these concentrations for 96 hours. After incubation, cells were treated with 3-(4,5-dimethylthiazol-2-yl)-2,5-diphenyltetrazolium bromide ([…]). MU crystals were dissolved with DMSO and plates were read at 570 nm absorbance using a BioTek Synergy HTX Multi-Mode Microplate Reader.
Cells were seeded at 0.5×10^6 cells/well in 6-well plates for overnight at 37 C in a humidified atmosphere containing 5% CO2. […] The percentage maximal response is shown as a function of anti-cancer agents when administered to Panc02 cells. The cell viability was measured by the MTT assay after 96 hours of incubation at 37° C. Data represent mean±standard deviation (n=3). Significant differences are indicated as follows: *p<0.05, and **p<0.01. The expression level of PD-L1 was determined using flow cytometry as follows. […] The cells were washed once with 3% BSA/PBS and analyzed by flow cytometer on a FACSCalibur flow cytometer and CellQuest™ Pro version 6.0 software (both from Becton-Dickinson and Co.). […]

[1] = system: PD-L1 surface expression in Panc02 cells; experiment: PD-L1 surface protein expression by flow cytometry; type: cell-based, murine; details: IC50 concentration, 48 hours
Method: Cells were seeded at 0.5×10^6 cells/well in 6-well plates for overnight at 37 C in a humidified atmosphere containing 5% CO2. […] The percentage maximal response is shown as a function of anti-cancer agents when administered to Panc02 cells. The cell viability was measured by the MTT assay after 96 hours of incubation at 37° C. Data represent mean±standard deviation (n=3). Significant differences are indicated as follows: *p<0.05, and **p<0.01. The expression level of PD-L1 was determined using flow cytometry as follows. Briefly, cells harvested from in vitro cultures were washed twice with 3% BSA/PBS and then incubated with rat anti-PD-L1 or isotype control antibodies ([…], BioXcell, West Lebanon, N.H., USA) for 30 minutes at 4 C, then washed three times and incubated with anti-rat AlexaFluor 488 conjugated Antibody. The cells were washed once with 3% BSA/PBS and analyzed by flow cytometer on a FACSCalibur flow cytometer and CellQuest™ Pro version 6.0 software (both from Becton-Dickinson and Co.).
Panc02 cells were treated with gemcitabine, Abraxane™, paclitaxel and DHA-SBT-1214 both in solution and nanoemulsion for 48 hours to determine whether they can induce PD-L1 protein expression. PD-L1 expression levels on tumor cells were determined by flow cytometry and is expressed as the A mean fluorescence intensity (ΔMFI; MFI using anti-PD-L1 subtracted from the isotype control). […] PD-L1 expression was analyzed using flow cytometry and is presented as ΔMFI (MFI using anti-PD-L1 subtracted from the isotype control). Data represent the mean±standard deviation of at least 3 independent experiments; *p<0.05, **p<0.01, ***p<0.001. As reported previously, PD-L1 level enhanced in pancreatic tumor tissues compared to in vitro growing cells as shown in FIG. 8.

| SMILES | efficacy compared to abraxane at 120 mg/kg (Panc02 induced tumor; 10 mg/kg) | IC50 (Panc02 cells) [nM] | PD-L1 surface expression (ΔMFI) [1] | tumor growth suppression (Panc02 induced tumor; 120 mg/kg weekly ×3) | IC50 (Panc02 cells; Mus musculus) [nM] |
| --- | --- | --- | --- | --- | --- |
| CC/C=C\C/C=C\C/C=C\C/C=C\C/C=C\C/C=C\CCC(=O)O[C@@H](C(=O)O[C@H]1C[C@@]2(O)[C@@H](OC(=O)c3ccccc3)[C@@H]3[C@]4(OC(C)=O)CO[C@@H]4C[C@H](O)[C@@]3(C)C(=O)[C@H](OC(=O)C3CC3)C(=C1C)C2(C)C)[C@H](C=C(C)C)NC(=O)OC(C)(C)C [DHA-SBT-1214, Docosahexaenoic acid conjugate of SBT-1214] | superior to abraxane treatment | 262 | upregulated |  |  |
| Nc1ccn([C@@H]2O[C@H](CO)[C@@H](O)C2(F)F)c(=O)n1 [gemcitabine] |  |  | upregulated | moderate effect | 154 |
